Like-named read-outs stand apart in the source and are kept apart here.
Assays:
[1] = Skin sensitization test according to Local Lymph Node Assay (LLNA) method, Stimulation Index (SI); conditions: LLNA method (OECD test guideline 429), SI less than 3 = no skin sensitization problem
[2] = statement of the material safety data sheet; cited from earlier work
[3] = in vivo

Compound	SI value [1]	also measured
C=C(C)C(=O)OCCCCOC(=O)C(=C)C [1,4-butane diol dimethacrylate]	2.6):	–
C=CC(=O)OCC(CC)(COC(=O)C=C)COC(=O)C=C [Trimethylol propane triacrylate (M-309), Trimethylol propane triacrylate]	–	skin sensitization as mentioned in MSDS [2]: Toagosei Company, Limited, skin sensitization causing
C=CC(=O)OCC(CC)(COC(=O)C=C)COC(=O)C=C [Trimethylol propane triacrylate (SR-350), Trimethylol propane triacrylate]	1.9):	–
Diacrylate of caprolactone-modified hydroxy pivalic acid neopentyl glyco	manufactured by Nippon Kayaku Co., Ltd., SI Value = 0.9):	–
Polypropylene glycol (n = 9) dimethacrylate	–	SI value [3]: 1.3):

From patent publication US8926083B2, “Polymerizable ink composition, ink cartridge, and inkjet printer” (Ricoh Company, Ltd., priority 2012, dated 2015)
